From patent publication US20110071163A1, “USE OF AN OPIOID RECEPTOR ANTAGONIST FOR THE TREATMENT OR PREVENTION OF GASTROINTESTINAL TRACT DISORDERS” (ADOLOR CORPORATION, priority 2009, published 2011)
Values joined by “and” are separate entries in the source; they are usually repeats but may differ in a detail not shown here. Equal values may be shown once. “Also recorded” adds a separate entry of the source. Read-outs that look alike come from different tables or passages of the source.

What was measured:
[1] = Plasma protein binding (human); format: in vitro ADME; settings: read-out: Plasma protein binding (% free drug)
[2] = 0.5 mg BID, patients with OIC or OBD, Phase 2 (Webster et al. 2008), cited from earlier work
[3] = system: opioid receptors in the central nervous system; experiment: Rat formalin test: reversal of morphine analgesia; format: in vivo; settings: for Potency of naltrexone relative to Compound I in reversing the effects of morphine in the CNS: morphine 10 mg/kg s.c., naltrexone s.c., Compound I oral
Procedure: Rats were injected with the irritant formalin and with 10 mg/kg of morphine subcutaneously. The amount of analgesia was determined by the reduction in the number of times the rat licked or paid attention to the site of formalin injection (events). Rats were dosed either with 0.02 mg/kg naltrexone (subcutaneous dose) or 1, 3 or 10 mg/kg Compound I (oral dose) to determine the ability of the compounds to reverse the analgesic effect of morphine. […] The reversal of morphine-induced analgesia by opioid receptor antagonists in the formalin test is believed to be primarily a centrally-mediated effect.

opioid receptors = experiment: Reversal of morphine-induced inhibition of gastrointestinal transit of charcoal meal in mice; format: in vivo; settings: Compound I oral dose
Procedure: Mice were either dosed with 10 μg/kg morphine intracerebroventricularly or with 1 mg/kg morphine subcutaneously. The degree of gastrointestinal transit of charcoal meal in the mice was measured in the absence of Compound I and in the presence of varying oral doses of Compound I in order to determine the ability of the compound to reverse the inhibition of gastrointestinal (GI) transit induced by morphine. The minimum effective dose of Compound I required to reverse GI transit inhibition in mice dosed with morphine directly into the CNS was determined to be about 3.0 mg/kg oral dose. (FIG. 2) In contrast, the effective dose of Compound I required to reverse GI transit inhibition in mice dosed with morphine systemically was determined to be about 0.16 mg/kg oral dose.

[4] = system: P-glycoprotein (P-gp) transporter; experiment: Partitioning in plasma and brain of wild-type and P-glycoprotein knockout mice; format: in vivo
Procedure: Wild-type or P-glycoprotein (P-gp) knockout mice were dosed with 2.5 mg/kg of Compound I intravenously. The mice were sacrificed and the amounts of Compound I in the blood and in the brain were assayed using standard techniques. […] Moreover, blood-brain barrier penetration of Compound I increased 7- to 19-fold in knockout mice that were deficient in the P-gp transporter.

[5] = target: T1, cloned human μ-opioid receptors (Homo sapiens, UniProt P35372); experiment: In vitro receptor binding in CHO cell membranes; settings: CHO cell membranes expressing cloned human μ-opioid receptors
T1 construct: expressed in transfected cells; host or cells: CHO cells (membranes)
T1 sequence (P35372 whole entry): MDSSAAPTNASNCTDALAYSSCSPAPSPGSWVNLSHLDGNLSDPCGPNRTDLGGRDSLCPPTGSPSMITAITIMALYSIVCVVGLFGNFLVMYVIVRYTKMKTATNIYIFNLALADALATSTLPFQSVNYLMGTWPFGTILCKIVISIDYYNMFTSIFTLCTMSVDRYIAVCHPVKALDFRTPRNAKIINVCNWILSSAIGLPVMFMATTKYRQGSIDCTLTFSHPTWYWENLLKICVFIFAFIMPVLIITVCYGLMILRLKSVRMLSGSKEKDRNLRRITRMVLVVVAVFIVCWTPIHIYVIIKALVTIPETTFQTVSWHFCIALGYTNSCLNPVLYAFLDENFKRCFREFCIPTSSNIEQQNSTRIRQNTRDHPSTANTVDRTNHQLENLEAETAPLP

[6] = Phase 1 oral pharmacokinetics of Compound I in healthy subjects; format: in vivo, human; settings: for Mean free Cmax plasma level: 1 mg single oral dose, healthy subjects
Procedure: (§1) The first approach was a calculation based on comparison of pharmacokinetic and pharmacological data for the highly peripheralized opioid receptor antagonist alvimopan. […] Webster et al. (2008) Pain 137:428-440.
If there is a potential for a degree of drug accumulation upon repeated dosing regimens, the doses associated with efficacy for treating OIC or OBD may be appreciably lower than the doses calculated above, i.e., as low as 0.01 to 0.02 mg whole body dose QD or BID (for a human weighing approximately 70 kg).

[7] = Plasma protein binding (mouse); format: in vitro ADME; settings: read-out: Plasma protein binding (% free drug)
[8] = system: opioid receptors in the CNS; experiment: Phase 1 pharmacodynamic markers of central opioid receptor antagonism (morphine-induced miosis, ACTH, cortisol); format: in vivo, human; settings: humans
Procedure: Determination of the lowest dose of Compound I that produces antagonism of opioid receptors in the CNS was addressed directly by examining the reported effect of Compound I on pharmacodynamic markers of central opioid receptor antagonism that were measured in the single and multiple dose Phase 1 clinical studies, i.e., the reversal of morphine-induced miosis (the effect on pupil diameter) and increases in adrenocorticotropic hormone (ACTH) and cortisol. The observed whole body dose of Compound I associated with a threshold reversal of morphine-induced miosis was 10 mg. Likewise, the observed whole body dose of Compound I associated with threshold increases in ACTH and cortisol was between 10 and 25 mg. A conservative estimate of the whole body dose for central opioid receptor antagonism was then determined by reducing these observed threshold doses by a half-log factor (i.e., 3-fold). Thus, the minimum doses of Compound I associated with pharmacologically relevant antagonism of opioid receptors in the CNS were conservatively estimated to be in the range of from about 3 mg to about 10 mg.

μ-opioid receptor = target: T2, μ-opioid receptor (Homo sapiens, UniProt P35372); experiment: Calculated effective dose and pharmacokinetic model of Compound I for treating OIC or OBD; settings: humans
T2 construct: expressed in transfected cells; host or cells: CHO cells (membranes)
T2 sequence (P35372 whole entry): as above
Excerpt: (§2) There are a number of approaches to determining the effective dose of Compound I for treating OIC or OBD. Four are outlined below. Depending on the approach, a number of basic assumptions were made in calculating the effective dose of Compound I for treating OIC or OBD: (i) The μ-opioid receptor is the primary target of Compound I to produce efficacy in the treatment of OIC or OBD, although other opioid receptors may also play a role. (ii) The systemic presence of Compound I in the periphery (but not in the CNS) is sufficient to produce robust efficacy in treating OIC or OBD. Thus, calculations were based on systemic plasma concentrations as opposed to possible topical or local effects in gut tissues, though these may also contribute to efficacy. (iii) The pharmacokinetic properties, specifically the oral bioavailability, of Compound I will be roughly similar in healthy volunteers and in patients with OIC or OBD.
as §1
A second approach was a calculation based on the potency (Ki) of Compound I as an antagonist for the […] receptor.
A third approach was to generate a pharmacokinetic model for Compound I at low doses. This was accomplished by assuming a linear relationship between dose and all parameters of the plasma time course for the 1 mg dose of Compound I, and extrapolating these to lower doses.

[9] = Phase I multiple ascending dose clinical study in subjects with OIC; format: in vivo, human
Excerpt: The objective of the Phase I multiple ascending dose clinical study was to evaluate the safety, tolerability, pharmacokinetics, and clinical effect of multiple ascending doses of Compound I administered twice daily (BID) to subjects who have opioid induced constipation (OIC) as a result of chronic opioid therapy for persistent noncancer pain. The first part of the study was a randomized, double blind, placebo controlled, multiple ascending dose study during which subjects took 4 oral doses of study medication over 2 days while confined to the study unit. Each of the 0.10 mg, 0.25 mg, 0.35 mg, 0.50 mg […] BID dose cohorts included 4 subjects, and randomization was unbalanced, with a 3:1 ratio of Compound I treatment (n=3) to placebo treatment (n=1). The 0.75 mg BID cohort included only 2 subjects. Assessments of clinical effect included the following measures, which were assessed starting immediately after the first dose of study medication through discharge on day 3: (i) time to first bowel movement after the first dose of study medication; (ii) number of bowel movements; and (iii) bowel movement Comfort Scores, stool weight, and stool consistency as measured by the Bristol Stool Scale for each bowel movement that occurs while the subject was confined to the study unit.
For pharmacokinetic analyses, blood samples were collected from each subject on day 1 at approximately 1 hour before the first dose of study medication (time 0) and at each of the following times after the first dose of study medication: 15 min, 30 min, 60 min, 90 min, 2 h, 3 h, 4 h, 6 h, 8 h, 10 h, and 12 h. FIGS. 7A, 7B and 7C indicate the plasma levels of Compound I obtained after the first dose over the dosing interval of 12 h and for each of the 5 doses tested (0.10 mg, 0.25 mg, 0.35 mg, 0.50 mg and 0.75 mg BID).

[10] = Oral bioavailability in cynomologus monkey; settings: in vivo, 0.1 mg/kg to 0.5 mg/kg
Excerpt: as §2

[11] = Oral bioavailability in rat; format: in vivo
[12] = 0.10 mg and 0.25 mg doses, preliminary

Q: With C[C@H]1CN(C[C@H](Cc2ccccc2)C(=O)NCC(=O)O)CC[C@@]1(C)c1cccc(O)c1 [Alvimopan, alvimopan] as the molecule, how does the fraction unbound [1] read?
A: 0.203

Q: And the “Mean free Cmax plasma level” value [2]?
A: 0.1^1 ng/ml

Q: And the “Mean free Cmax plasma level” value ([2]; listed as alvimopan)?
A: approximately 0.1 ng/ml

Q: Which results are given for COc1cc(CNCCC2CCOCC2)ccc1Oc1cnc(C(N)=O)cn1 [Compound I, 5-(2-methoxy-4-{[2-(tetrahydro-pyran-4-yl)-ethylamino]-methyl}-phenoxy)-pyrazine-2-carboxamide]?
A: Times less potent than naltrexone as antagonist of opioid receptors in the central nervous system [3]: at least 100 times; Minimum effective dose to reverse GI transit inhibition (opioid receptors; morphine 10 μg/kg intracerebroventricularly (direct CNS)): about 3.0 mg/kg; Effective dose to reverse GI transit inhibition (opioid receptors; morphine 1 mg/kg subcutaneously (systemic)): about 0.16 mg/kg; P-gp transport ([4]; concluded from knockout mice): substrate for the efflux transporter P-gp; Compound I in blood plasma relative to brain ([4]; wild type mice, 2.5 mg/kg intravenously): 17 times; Ki [5]: 0.36 nM; Mean free Cmax plasma level ([6]; converted with MW 386.4 g/mol): 2.98 nM; Mean free Cmax plasma level ([6]; free drug estimated with mouse plasma protein binding): 1.15 ng/ml and 1.15^2 ng/ml; half-life ([6]; human, plasma, oral, humans, doses of 1-3 mg): ~12 h; Oral pharmacokinetics versus dose ([6]; humans, dose range 1 mg to 100 mg): highly consistent and dose-proportional; fraction unbound [1]: 0.738; fraction unbound [7]: 0.64; Whole body dose associated with threshold reversal of morphine-induced miosis [8]: 10 mg; Whole body dose effective in treating OIC or OBD without antagonizing CNS μ-opioid receptors (calculated) (μ-opioid receptor; QD or BID, multiple rationales): approximately 0.1 mg/day; Whole body dose needed to achieve 0.36 nM of free drug (second approach) (μ-opioid receptor; linear extrapolation): 0.12 mg; Dose needed to produce a free drug plasma Cmax of 0.1 ng/ml (μ-opioid receptor; linear extrapolation below 1 mg): 0.087 mg; Amount effective for treating OIC or OBD confirmed in Phase I clinical studies [9]: approximately 0.1 mg/day; Pharmacological effect [9, 12]: produced the desired pharmacological effects; Tolerability [9, 12]: well-tolerated; also recorded: well tolerated; bioavailability [10]: ~100%; Oral bioavailability [11]: high oral bioavailability

Q: For O=C1CC[C@@]2(O)[C@H]3Cc4ccc(O)c5c4[C@@]2(CCN3CC2CC2)[C@H]1O5 [naltrexone], which “Potency of naltrexone relative to Compound I in reversing the effects of morphine in the CNS” value [3] is on record?
A: more than 100 times

Q: And the “Potency of naltrexone relative to Compound I in reversing the effects of morphine in the CNS” value ([3]; listed as Naltrexone)?
A: approximately 100 times
